The experiment has as its target T1, PARP-1 (Homo sapiens, UniProt P09874).
T1 construct: gene PARP1
Description: cell-free PARP-1 inhibition assay, dose-response. It is filed as biochemical.

Molecules are shown by their SMILES.

T1 sequence (P09874 2-1014): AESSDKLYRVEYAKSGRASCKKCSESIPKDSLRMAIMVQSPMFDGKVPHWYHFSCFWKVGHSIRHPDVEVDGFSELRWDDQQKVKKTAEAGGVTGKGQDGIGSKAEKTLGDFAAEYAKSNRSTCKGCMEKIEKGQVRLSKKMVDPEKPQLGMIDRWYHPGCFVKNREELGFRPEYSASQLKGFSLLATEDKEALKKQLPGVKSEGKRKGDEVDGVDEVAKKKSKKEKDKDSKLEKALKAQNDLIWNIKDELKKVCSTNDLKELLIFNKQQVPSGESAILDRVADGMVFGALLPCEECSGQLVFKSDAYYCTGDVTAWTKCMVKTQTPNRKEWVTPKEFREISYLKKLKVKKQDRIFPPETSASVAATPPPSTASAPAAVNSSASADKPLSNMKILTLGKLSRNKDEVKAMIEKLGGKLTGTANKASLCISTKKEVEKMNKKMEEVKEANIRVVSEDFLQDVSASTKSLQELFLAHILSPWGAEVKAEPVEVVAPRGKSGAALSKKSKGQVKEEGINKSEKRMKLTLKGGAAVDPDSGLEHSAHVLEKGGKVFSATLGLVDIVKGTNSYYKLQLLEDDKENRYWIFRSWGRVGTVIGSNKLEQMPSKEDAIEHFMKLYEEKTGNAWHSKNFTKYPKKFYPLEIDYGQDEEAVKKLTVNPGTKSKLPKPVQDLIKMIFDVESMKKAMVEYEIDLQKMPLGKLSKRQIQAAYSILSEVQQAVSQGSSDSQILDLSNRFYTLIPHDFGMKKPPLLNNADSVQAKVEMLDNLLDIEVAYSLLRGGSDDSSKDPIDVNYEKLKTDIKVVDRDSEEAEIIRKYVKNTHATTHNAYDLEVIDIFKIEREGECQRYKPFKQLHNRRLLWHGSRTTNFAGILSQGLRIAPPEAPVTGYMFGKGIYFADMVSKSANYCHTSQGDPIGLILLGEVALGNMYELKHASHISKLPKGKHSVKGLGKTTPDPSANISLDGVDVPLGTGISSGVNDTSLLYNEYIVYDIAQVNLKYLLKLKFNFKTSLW

The term IC50 denotes the point on the concentration scale where inhibition reaches its midpoint. A low value points to higher potency. Turning to `O=C1CCC(N2Cc3c(NC(=O)CCCCCCCNC(=O)c4cc(Cc5n[nH]c(=O)c6ccccc56)ccc4F)cccc3C2=O)C(=O)N1` (stereo not drawn) [compound 1, N-(8-((2–(2,6-dioxopiperidin-3-yl)-1-oxoisoindolin-4-yl)amino)-8-oxooctyl)-2-fluoro-5-((4-oxo-3,4-dihydrophthalazin-1-yl)methyl)benzamide], the IC50 was determined as 0.0713 µM.
For `O=C1CCC(N2Cc3c(NC(=O)CCCCCCCCCCNC(=O)c4cc(Cc5n[nH]c(=O)c6ccccc56)ccc4F)cccc3C2=O)C(=O)N1` (stereo not drawn) [compound 2, N-(11-((2–(2,6-dioxopiperidin-3-yl)-1-oxoisoindolin-4-yl)amino)-11-oxoundecyl)-2-fluoro-5-((4-oxo-3,4-dihydrophthalazin-1-yl)methyl)benzamide] the value was 0.0547 µM; for `O=C1CCC(N2Cc3c(NC(=O)CCCCCCCCCCCNC(=O)c4cc(Cc5n[nH]c(=O)c6ccccc56)ccc4F)cccc3C2=O)C(=O)N1` (stereo not drawn) [compound 3, N-(12-((2–(2,6-dioxopiperidin-3-yl)-1-oxoisoindolin-4-yl)amino)-12-oxododecyl)-2-fluoro-5-((4-oxo-3,4-dihydrophthalazin-1-yl)methyl)benzamide], 0.0207 µM.
